Source: PMC6681697, “One-Step ^18F-Labeling and Preclinical Evaluation of Prostate-Specific Membrane Antigen Trifluoroborate Probes for Cancer Imaging” (Journal of Nuclear Medicine, 2019)
Read-outs that look alike come from different tables or passages of the source.

Key:
LNCaP xenografts = assay: Ex vivo biodistribution and blocking studies in mice bearing LNCaP xenografts; settings: for tumor uptake compared with ^18F-DCFPyL: 1-way ANOVA, Dunnett test; for tumor uptake: LNCaP tumor
Protocol: Imaging and biodistribution experiments were performed using NODSCID IL2RγKO male mice. All experiments were conducted according to the guidelines established by the Canadian Council on Animal Care and approved by the Animal Ethics Committee of the University of British Columbia. Mice were anesthetized by inhalation with 2% isoflurane in oxygen and implanted subcutaneously with 1 × 10^7 LNCaP cells behind the left shoulder. The mice were imaged or used in biodistribution studies once the tumor reached 5–8 mm in diameter (5–6 wk).
For biodistribution and blocking studies, the mice were injected with 1–3 MBq of radiotracer. At 60 min, the mice were anesthetized with 2% isoflurane inhalation and euthanized by CO2 inhalation. Blood was withdrawn by cardiac puncture, and the organs and tissues of interest were collected, weighed, and counted using an automatic γ-counter (PerkinElmer). Uptake values were expressed as the percentage of the injected dose per gram of tissue (%ID/g).
A standard 1-way ANOVA was performed to determine whether statistically significant differences in tumor uptake occurred between radiotracers. Each radiotracer was compared with ^18F-DCFPyL using the Dunnett test (a many-to-one t test comparison). This analysis was also performed for kidney and blood activity and for tumor-to-blood and tumor-to-muscle ratios. Reported P values were adjusted for multiple comparisons. The analysis was performed using Prism 8 (GraphPad). […]
Statistical analyses were performed using GradPad prism 7. Multiple t tests were performed to compare biodistribution in unblocked and blocked mice, multiple comparisons were corrected using the Holm-Sidak method. The difference was considered statistically significant when p value was < 0.05.
Supplemental Table 1 – Complete biodistribution study for compounds [18F]1–3 […]
Tissue 1h 1h blocked 1h 1h blocked 1h 1h blocked
(%ID/g) n = 8 n = 4 n = 6 n = 4 n = 8 n = 5 […]
(1 picture or pasted object on this page, not shown here)

[1] = Distribution coefficient (LogD7.4), shake flask method; type: physicochemical; settings: n-octanol / phosphate buffer 0.1 M pH 7.4; n = 3
Protocol: LogD7.4 values were measured using the shake flask method. Briefly, an aliquot of ^18F-labeled tracer was added to a vial containing 2.5 mL of n-octanol and 2.5 mL of phosphate buffer (0.1 M, pH 7.4). The mixture was vortexed for 2 min and then centrifuged at 3,000g for 10 min. A sample of the n-octanol (0.1 mL) and buffer (0.1 mL) layers was counted using a γ-counter. Values of LogD7.4 were calculated using the following equation: LogD7.4 = log10 [(counts in n-octanol phase)/(counts in buffer phase)].

PSMA = target: T1, PSMA (Homo sapiens, UniProt Q04609); assay: In vitro competition binding assay on LNCaP cells with ^18F-DCFPyL as radioligand
T1 construct: because it expresses PSMA endogenously and is commonly used to evaluate PSMA-targeting radiotracers; endogenous in cells; host or cells: LNCaP cells
T1 sequence (Q04609 whole entry): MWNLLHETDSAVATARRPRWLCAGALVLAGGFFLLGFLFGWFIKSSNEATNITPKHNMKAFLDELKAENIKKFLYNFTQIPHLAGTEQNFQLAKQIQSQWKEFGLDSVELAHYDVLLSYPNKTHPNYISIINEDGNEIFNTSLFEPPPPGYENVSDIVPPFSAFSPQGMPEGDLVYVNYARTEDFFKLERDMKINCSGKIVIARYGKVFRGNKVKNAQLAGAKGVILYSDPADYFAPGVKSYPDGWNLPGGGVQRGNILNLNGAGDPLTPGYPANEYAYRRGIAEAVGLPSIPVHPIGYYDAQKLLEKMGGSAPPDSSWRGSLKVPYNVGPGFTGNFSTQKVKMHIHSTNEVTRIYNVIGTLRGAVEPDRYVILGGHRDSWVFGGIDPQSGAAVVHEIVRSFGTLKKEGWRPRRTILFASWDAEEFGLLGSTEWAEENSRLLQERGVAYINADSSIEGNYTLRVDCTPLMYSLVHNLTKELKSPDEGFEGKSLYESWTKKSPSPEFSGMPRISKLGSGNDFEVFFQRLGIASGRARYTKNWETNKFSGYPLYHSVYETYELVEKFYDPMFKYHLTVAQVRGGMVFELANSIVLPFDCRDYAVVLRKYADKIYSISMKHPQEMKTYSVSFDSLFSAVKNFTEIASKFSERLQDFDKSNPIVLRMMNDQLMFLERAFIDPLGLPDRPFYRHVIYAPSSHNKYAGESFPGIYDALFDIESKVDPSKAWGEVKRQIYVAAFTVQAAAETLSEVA
Protocol: LNCaP cells were plated onto a 24-well poly-D-lysine coated plate for 48 h (400,000/well). […] Nonspecific binding was determined in the presence of 10 μM unlabeled DCFPyL. The assay mixtures were incubated for 1 h at 37°C with gentle agitation followed by 2 washes with cold HEPES buffered saline. A trypsin solution (0.25%, 400 μL) was then added to each well to harvest the cells. Radioactivity was measured by γ-counting, and Ki values were calculated using the “1 site—fit Ki” built-in model in Prism 7 (GraphPad).

[2] = 1 h blocked (coinjection of DCFPyL 0.5 mg)

## O=C(O)CC[C@H](NC(=O)N[C@@H](CCCCNC(=O)c1ccc(Cn2cc(C[n+]3ccc([B-](F)(F)F)cc3)nn2)nc1)C(=O)O)C(=O)O [^18F-4]
LNCaP xenografts; 1 h after injection, unblocked
  T/B (tumor-to-blood ratio): 8.70 ± 1.74
  T/K (tumor-to-kidney ratio): 0.04 ± 0.02
  T/M (tumor-to-muscle ratio): 23.40 ± 5.00
  adrenal uptake: 6.66 ± 2.33 %ID/g
  blood uptake: 0.74 ± 0.15 %ID/g
  bone uptake: 0.76 ± 0.57 %ID/g
  brain uptake: 0.05 ± 0.01 %ID/g
  fat uptake: 1.05 ± 0.49 %ID/g
  heart uptake: 0.34 ± 0.08 %ID/g
  intestine uptake: 0.48 ± 0.22 %ID/g
  kidney uptake: 164.33 ± 50.20 %ID/g
  liver uptake: 1.28 ± 0.18 %ID/g
  lung uptake: 1.67 ± 0.47 %ID/g
  muscle uptake: 0.28 ± 0.07 %ID/g
  pancreas uptake: 0.68 ± 0.50 %ID/g
  spleen uptake: 3.36 ± 1.08 %ID/g
  stomach uptake: 0.15 ± 0.03 %ID/g
  testes uptake: 0.67 ± 0.27 %ID/g
LNCaP xenografts; 1 h after injection
  tumor uptake compared with ^18F-DCFPyL: lower tumor uptake than ^18F-DCFPyL
LNCaP xenografts; [2]
  T/B (tumor-to-blood ratio): 0.75 ± 0.18
  T/K (tumor-to-kidney ratio): 0.11 ± 0.03
  T/M (tumor-to-muscle ratio): 1.91 ± 0.46
  adrenal uptake: 0.26 ± 0.15 %ID/g
  blood uptake: 0.24 ± 0.11 %ID/g
  bone uptake: 0.56 ± 0.20 %ID/g
  brain uptake: 0.02 ± 0.01 %ID/g
  fat uptake: 0.04 ± 0.03 %ID/g
  heart uptake: 0.09 ± 0.04 %ID/g
  intestine uptake: 0.18 ± 0.04 %ID/g
  kidney uptake: 1.62 ± 0.73 %ID/g
  liver uptake: 0.90 ± 0.25 %ID/g
  lung uptake: 0.19 ± 0.09 %ID/g
  muscle uptake: 0.11 ± 0.08 %ID/g
  pancreas uptake: 0.08 ± 0.03 %ID/g
  spleen uptake: 0.13 ± 0.06 %ID/g
  stomach uptake: 0.06 ± 0.02 %ID/g
  testes uptake: 0.08 ± 0.03 %ID/g
  tumor uptake: 0.18 ± 0.11 %ID/g
LNCaP xenografts; 1 h after injection, unblocked, listed as 4
  tumor uptake: 6.3 ± 0.8 %ID/g
LNCaP xenografts; 1 h after injection, unblocked, listed as [18F]4
  tumor uptake: 6.26 ± 0.82 %ID/g
[1]
  logD at 2 min: -3.34 ± 0.02
PSMA
  Ki: 27.6 ± 3.8 nM

## C[N+](C)(Cc1ccc(C(=O)NCCCC[C@H](NC(=O)N[C@@H](CCC(=O)O)C(=O)O)C(=O)O)cc1)C[B-](F)(F)F [^18F-1]
LNCaP xenografts; 1 h after injection, unblocked
  T/B (tumor-to-blood ratio): 10.82 ± 1.64
  T/K (tumor-to-kidney ratio): 0.07 ± 0.06
  T/M (tumor-to-muscle ratio): 23.43 ± 3.71
  adrenal uptake: 4.77 ± 1.75 %ID/g
  blood uptake: 0.57 ± 0.15 %ID/g
  bone uptake: 0.36 ± 0.02 %ID/g
  brain uptake: 0.04 ± 0.01 %ID/g
  fat uptake: 0.99 ± 0.39 %ID/g
  heart uptake: 0.30 ± 0.06 %ID/g
  intestine uptake: 0.54 ± 0.11 %ID/g
  kidney uptake: 114.00 ± 41.30 %ID/g
  liver uptake: 2.90 ± 0.56 %ID/g
  lung uptake: 1.37 ± 0.36 %ID/g
  muscle uptake: 0.26 ± 0.08 %ID/g
  pancreas uptake: 0.55 ± 0.16 %ID/g
  spleen uptake: 2.67 ± 0.98 %ID/g
  stomach uptake: 0.12 ± 0.05 %ID/g
  testes uptake: 0.62 ± 0.15 %ID/g
  tumor uptake: 6.0 ± 1.2 %ID/g
LNCaP xenografts; 1 h after injection
  tumor uptake compared with ^18F-DCFPyL: lower tumor uptake than ^18F-DCFPyL
LNCaP xenografts; [2]
  T/B (tumor-to-blood ratio): 0.91 ± 0.44
  T/K (tumor-to-kidney ratio): 0.10 ± 0.03
  T/M (tumor-to-muscle ratio): 2.63 ± 1.10
  adrenal uptake: 0.35 ± 0.14 %ID/g
  blood uptake: 0.45 ± 0.27 %ID/g
  bone uptake: 0.30 ± 0.07 %ID/g
  brain uptake: 0.03 ± 0.01 %ID/g
  fat uptake: 0.14 ± 0.08 %ID/g
  heart uptake: 0.15 ± 0.04 %ID/g
  intestine uptake: 0.57 ± 0.23 %ID/g
  kidney uptake: 3.54 ± 0.83 %ID/g
  liver uptake: 3.00 ± 0.53 %ID/g
  lung uptake: 0.25 ± 0.06 %ID/g
  muscle uptake: 0.13 ± 0.03 %ID/g
  pancreas uptake: 0.11 ± 0.03 %ID/g
  spleen uptake: 0.13 ± 0.03 %ID/g
  stomach uptake: 0.11 ± 0.08 %ID/g
  testes uptake: 0.10 ± 0.02 %ID/g
  tumor uptake: 0.33 ± 0.07 %ID/g
LNCaP xenografts; 1 h after injection, unblocked, listed as [18F]1
  tumor uptake: 6.04 ± 1.24 %ID/g
[1]
  LogD7.4: −3.43 ± 0.35
PSMA; LNCaP cells, 0.1 nM ^18F-DCFPyL radioligand, 1 h at 37°C, n = 3
  Ki: 14.4 ± 2.7 nM
